Results published in EP0240257A2, “Compounds and pharmaceutical preparations having calcium - regulatory activity” (University of Lancaster, priority 1986, dated 1987).
“Also recorded” adds a separate entry of the source.

Legend:
[1] = system: rat urinary bladder detrusor muscle strips; test: Field stimulation contractions of isolated smooth muscle (organ bath tension recording)
Method: (§1) Smooth muscle preparations were obtained from male Wistar strain albino rats. The animals were killed by a blow to the head and smooth muscle strips (about 2 mm x 10 mm) were dissected from the bladder. The vasa deferentia were divided into two portions and longitudinally bisected. Tests on cardiac muscle were carried out using isolated cannulated flounder heart. All mammalian preparations were maintained in Krebs solution containing NaCl : 120.7 mM; NaH₂PO₄ : 1.3 mM; KCl : 5.9 mM; NaHCO₃ : 15.5 mM and CaCl₂ : 2.5mM; glucose : 11.5 mM. MgCl₂ : 1.2mM The Krebs solution was adjusted to pH 7.3 with HCl and was continuously aerated and maintained at 37°C.
(§2) To record tension the muscle preparations were mounted vertically in jacketed organ baths which were continuously aerated and whose contents could be rapidly changed. The preparations were attached to a set of Grass Instruments ST 0.3C force displacement transducers held in adjustable rackwork, and the racks were adjusted to put slight tension on the preparations. After mounting in the perfusion baths the preparations were allowed to equilibrate for 1 hour, the bath saline being changed every 15 min. The force displacement transducer outputs were connected to a four-channel Grass model 79 polygraph. The stimulation electrode terminals were attached to Grass SIU 5 isolation units connected to two Grass S48 stimulators driven in tandem. Stimulation train parameters varied in different preparations but a common regime consisted of a 200 msec train of pulses at 50 Hz, each pulse being 2-5 msec at 40-50 V. Trains were automatically repeated usually at 100 or 50 sec intervals. The techniques have been described in detail by Huddart and Butler (1986) in Gen. Pharmac., 17, 695-703 (1986).
(§3) The smooth muscle preparations were threaded through two silver/silver chloride ring electrodes (4 mm inside diameter), mounted 10 mm apart on a perspex rod. The bottom ligature was passed through a fine hole in a nylon screw at the base of the rod. By turning the screw the muscle strip could be drawn exactly through the electrode rings. The electrode assemblies were then placed in the jacketed organ baths as described above and the upper muscle ligatures attached to the transducer to measure tension. Both the vas deferens and the bladder smooth muscles responded to the field stimulation with consistent repeatable contractions. It is believed that these contractions are calcium-dependent via the operation of slow calcium channels. The effect of ABA on these contractions was tested by adding a concentrated solution thereof to the perfusion solution to give an overall ABA concentration of 10⁻⁶M. In the two vas deferens studies the slow calcium channel blocker nifedipine was then added in the same manner to produce a concentration of 10⁻⁷M. […]

[2] = system: rat vas deferens smooth muscle; test: as above
Method: as §1, §2, §3

[3] = system: rat urinary bladder detrusor muscle strips; test: High-K (60 mM K+) contracture response of K+-depolarized muscle
Method: as §1, §2
(A) Rat urinary bladder detrusor muscle strips were tested in a high-K saline prepared by substitution of sodium compounds in the Krebs' solution by equimolar amounts of potassium compounds to give a K+ concentration of 60 mM. At this level of depolarization it is believed that the fast calcium channels are voltage-inactivated. […]

flounder heart = test: Contractile force of isolated cannulated heart
Method: as §1
The flounder heart was maintained at 10°C in flounder saline containing NaCl : 116.7 mM, CaCl₂ : 1.72 mM, Na₂SO₄ : 18.6 mM, TES : 2.5 mM and KCl : 2.71 mM, glucose : 5.0 mM MgSO₄ : 0.67 mM, at pH 7.65.
as §2
The contractile force in flounder heart was measured before and after addition of ABA to the perfusion solution.

[4] = system: rat vas deferens smooth muscle (partly depolarized); test: K+-induced (20 mM K) contracture tension, dose-response comparison; conditions: for activity in enhancing K+-induced contracture tension: parallel trials of ABA and BAY K 8644, result in words
Method: as §1, with “All mammalian preparations were maintained in Krebs solution containing NaCl : 120.7 mM; NaH₂PO₄ : 1.3 mM; KCl : 5.9 mM; NaHCO₃ : 15.5 mM and CaCl₂ : 2.5mM; glucose : 11.5 mM.” left out
as §2, with “intervals.” for “intervals. The techniques have been described in detail by Huddart and Butler (1986) in Gen. Pharmac., 17, 695-703 (1986).”

[5] = system: microsomal calcium efflux; test: Potassium-stimulated microsomal calcium efflux; type: biochemical
[6] = Field stimulation response (more recent findings, tissue not stated); conditions: no tissue or concentration printed
[7] = Rattus norvegicus, read-out: enhanced field stimulation responses

| Structure (SMILES) | activation at 1 µM [1, 7] [%] | activation at 1 µM [2, 7] [%] | tonic phase of the response ([3]; ABA 10⁻⁶ M in high-K saline, added just after the initial phasic response) | contracture tension ([3]; ABA 10⁻⁶M, K+-depolarized muscle, result in words) | activation at 1 µM ([3]; Rattus norvegicus, 0.25 h, ABA 10⁻⁶ M added 15 minutes before the high-K solution (K+ 60 mM), read-out: enhancement of contracture tension) [%] | contractile force (flounder heart; ABA 10⁻⁶M in perfusion solution, 10°C) | cardiac arrhythmia (flounder heart; prolonged ABA exposure (15 minutes)) | activity in enhancing K+-induced contracture tension [4] | EC (100% enhancement) ([4]; rat vas deferens, partly depolarized, read-out: threshold for 100% enhancement of K contracture tension) [µM] | potassium-stimulated microsomal calcium efflux [5] | field stimulation response [6] | inhibition of the ABA augmentation of the field stimulation response (and of the response itself) ([1]; nifedipine after ABA 10⁻⁶M, bladder) | inhibition of the ABA augmentation of the field stimulation response (and of the response itself) ([2]; nifedipine 10⁻⁷M added after ABA 10⁻⁶M, vas deferens) | inhibition of the ABA action on contractile force (flounder heart; nifedipine after ABA 10⁻⁶M) | threshold / potency relative to ABA ([4]; rat vas deferens) |
| --- | --- | --- | --- | --- | --- | --- | --- | --- | --- | --- | --- | --- | --- | --- | --- |
| CC1=CC(=O)CC(C)(C)C1(O)/C=C/C(C)=C\C(=O)O (racemic) [ABA, (1ʹS,2Z,4E)-5-(1ʹ-hydroxy-2ʹ,6ʹ,6ʹ-trimethyl-4ʹ-oxocyclohex-2ʹ-enyl)-3-methyl-penta-2,4-dienoic acid] | ~25 | ~25 | enhanced; also recorded: considerable enhancement | considerably augmented | 50 | augment | pronounced cardiac arrhythmia | identical activity | ~0.005 | enhances | enhances |  |  |  |  |
| COC(=O)C1=C(C)NC(C)=C(C(=O)OC)C1c1ccccc1[N+](=O)[O-] [nifedipine, reference compound] |  |  |  |  |  |  |  |  |  |  |  | inhibited | inhibited | inhibited |  |
| COC(=O)C1=C(C)NC(C)=C([N+](=O)[O-])C1c1ccccc1C(F)(F)F (stereo not shown) [BAY K 8644, methyl 1,4-dihydro-2,6-dimethyl-5-nitro-4-[2-(trifluoromethyl)-phenyl]-3-pyridinecarboxylate, reference compound] |  |  |  |  |  |  |  | identical activity |  |  |  |  |  |  | roughly one order of magnitude greater than ABA |
